{
  "source": "ChEMBL document CHEMBL3860030",
  "about": "“Design, synthesis and biological evaluation of novel macrocyclic bisbibenzyl analogues as tubulin polymerization inhibitors” (Eur J Med Chem, 2016)",
  "key": {"Bos taurus [1]": {"organism": "Bos taurus", "assay": "Induction of bovine brain tubulin polymerization at 5 uM measured every minute for 1 hr by spectrophotometric method"}, "Bos taurus [2]": {"organism": "Bos taurus", "assay": "Inhibition of bovine brain tubulin polymerization at 5 uM measured every minute for 1 hr by spectrophotometric method"}, "HCC1428": {"system": "HCC1428", "assay": "Cytotoxicity against human HCC1428 cells assessed as decrease in cell viability at 1 uM after 60 hrs by xCELLigence system", "format": "functional, cell-based"}, "[3]": {"assay": "Cytotoxicity against docetaxel-resistant human PC3 cells assessed as decrease in cell viability after 48 hrs by MTT assay", "format": "functional, cell-based", "settings": "PC-3, 48 h"}, "[4]": {"assay": "Cytotoxicity against human HCC1428 cells assessed as decrease in cell viability after 48 hrs by MTT assay", "format": "functional, cell-based", "settings": "HCC1428, 48 h"}, "cells": {"assay": "cells", "settings": "Homo sapiens, HeLa, 48 h", "description": "Cytotoxicity against human HeLa cells assessed as decrease in cell viability after 48 hrs by MTT assay"}, "[5]": {"assay": "Cytotoxicity against human HT-29 cells assessed as decrease in cell viability after 48 hrs by MTT assay", "format": "functional, cell-based", "settings": "HT-29, 48 h"}},
  "note": "Structures can show the parent of a compound that is named as a salt. The source made the active and inactive calls. No cut-off for these calls is given here.",
  "data": [
    {"smiles": "CC(=O)O[C@H]1C(=O)[C@@]2(C)[C@H]([C@H](OC(=O)c3ccccc3)[C@]3(O)C[C@H](OC(=O)[C@H](O)[C@@H](NC(=O)c4ccccc4)c4ccccc4)C(C)=C1C3(C)C)[C@]1(OC(C)=O)CO[C@@H]1C[C@@H]2O", "values": [
      {"measurement": "Activity", "setting": "Bos taurus [1]", "result": "Active"}
    ]},
    {"smiles": "CC[C@]1(O)C[C@H]2CN(CCc3c([nH]c4ccccc34)[C@@](C(=O)OC)(c3cc4c(cc3OC)N(C=O)[C@H]3[C@@](O)(C(=O)OC)[C@H](OC(C)=O)[C@]5(CC)C=CCN6CC[C@]43[C@@H]65)C2)C1", "values": [
      {"measurement": "inhibition", "setting": "Bos taurus [2]", "result": "Active"},
      {"measurement": "Activity", "setting": "HCC1428", "result": "Active"}
    ]},
    {"smiles": "COc1cccc2c1C(=O)c1c(O)c3c(c(O)c1C2=O)C[C@@](O)(C(=O)CO)C[C@@H]3O[C@H]1C[C@H](N)[C@H](O)[C@H](C)O1", "note": "[DOXORUBICIN HYDROCHLORIDE]", "values": [
      {"measurement": "IC50", "setting": "[3]", "result": 15.2, "unit": "µM"},
      {"measurement": "IC50", "setting": "[4]", "result": 1.56, "unit": "µM"},
      {"measurement": "IC50", "setting": "cells", "result": 1.06, "unit": "µM"},
      {"measurement": "IC50", "setting": "[5]", "result": 1.46, "unit": "µM"}
    ]}
  ]
}
